Among the data in US20080207527A1, “Bicyclic Compounds Which Inhibit Beta-Secretase Activity and Methods of Use Thereof” (CoMentis, Inc., priority 2004, published 2008) are Ki and IC50 values, retold here.

One assay concerns the target memapsin 2 (Homo sapiens, UniProt P56817). The assay can be described thus: Inhibition of memapsin 2 beta-secretase activity toward fluorogenic substrate FS-2. The format is biochemical. As to conditions: pH 4, 37° C., 20 minutes pre-incubation, read-out: M2 Ki. The protocol: Potency of compounds were determined by measurement of their inhibition of memapsin 2 activity toward a fluorescent substrate. […] Briefly, assays were performed at pH 4, 37° C., by pre-incubation of memapsin 2 enzyme with compound for 20 minutes. Activity measure was initiated by addition of a fluorogenic substrate FS-2 (Bachem Americas, Torrance, Calif.). Fluorescent signal increase over time was measured as a rate of hydrolysis of the peptide substrate.

A further assay deals with Cathepsin D (Homo sapiens, UniProt P07339). The assay can be described thus: Inhibition of cathepsin D activity (substrate peptide hydrolysis, MALDI-TOF). The format is biochemical. As to conditions: pH 4.1, 37 degrees C., read-out: Cath D Ki.
Sequence of Cathepsin D (P07339 65-412, species assumed): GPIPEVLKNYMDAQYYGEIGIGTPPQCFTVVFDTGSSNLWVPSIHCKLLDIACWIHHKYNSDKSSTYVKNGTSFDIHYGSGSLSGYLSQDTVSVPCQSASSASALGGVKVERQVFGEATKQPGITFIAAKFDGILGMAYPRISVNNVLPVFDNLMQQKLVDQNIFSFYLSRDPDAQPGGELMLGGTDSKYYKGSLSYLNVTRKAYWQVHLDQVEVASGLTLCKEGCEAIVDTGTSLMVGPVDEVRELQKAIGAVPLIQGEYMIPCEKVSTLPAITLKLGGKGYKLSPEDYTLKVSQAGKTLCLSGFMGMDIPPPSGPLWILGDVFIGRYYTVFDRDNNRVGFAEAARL
The next assay has as its target T1, memapsin 1 (Homo sapiens, UniProt Q9Y5Z0).
T1 sequence (Q9Y5Z0 63-518): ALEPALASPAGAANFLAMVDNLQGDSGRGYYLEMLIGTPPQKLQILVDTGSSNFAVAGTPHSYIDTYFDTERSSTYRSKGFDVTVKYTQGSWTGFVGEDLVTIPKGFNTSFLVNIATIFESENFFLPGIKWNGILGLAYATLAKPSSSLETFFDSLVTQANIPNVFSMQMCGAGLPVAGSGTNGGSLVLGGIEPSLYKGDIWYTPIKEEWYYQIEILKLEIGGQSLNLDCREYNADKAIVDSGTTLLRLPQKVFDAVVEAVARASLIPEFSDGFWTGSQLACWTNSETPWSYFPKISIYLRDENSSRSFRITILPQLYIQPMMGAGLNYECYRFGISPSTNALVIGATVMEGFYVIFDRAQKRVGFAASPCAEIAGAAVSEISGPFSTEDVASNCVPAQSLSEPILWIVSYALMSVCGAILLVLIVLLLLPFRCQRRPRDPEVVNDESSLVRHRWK
The assay can be described thus: Inhibition of memapsin 1 beta-secretase activity (substrate peptide hydrolysis, MALDI-TOF). The format is biochemical. As to conditions: pH 4.1, 37 degrees C., read-out: M1 Ki.

A further assay relates to Aβ production. The assay can be described thus: Cellular Aβ IC50 determination (Aβ40 sandwich ELISA). The format is cell-based. The note with it: Cricetulus griseus, Chinese hamster ovary cells over-expressing human APP695 with London and Swedish mutations, 24 h. The protocol: The potency of compounds against memapsin 2 activity was determined in a cellular assay of Aβ production. […] Chinese hamster ovary cells that over-express human APP695 with the London and Swedish mutations were seeded in multi-well plates at 10% confluency. Compounds were dissolved in DMSO to concentrations near 1 mM, and diluted into culture media to a final concentration near 4 μM (final 0.4% DMSO). Compounds were diluted serially and applied to cells in multi-well plates 48 h after seeding. Incubation was continued in 5% CO2 at 37 degrees C. for 24 h. Aliquots were removed and assayed for Aβ40 content using a sandwich ELISA (BioSource International). Amount of Aβ40 over the range of concentration of compounds, relative to control incubations, were fit to a 4-parameter IC50 model.
For orientation: An ELISA detects its analyte on a solid surface through an enzyme-linked reagent.

Each structure is given as a SMILES string.

Sequence of memapsin 2 (P56817 46-501): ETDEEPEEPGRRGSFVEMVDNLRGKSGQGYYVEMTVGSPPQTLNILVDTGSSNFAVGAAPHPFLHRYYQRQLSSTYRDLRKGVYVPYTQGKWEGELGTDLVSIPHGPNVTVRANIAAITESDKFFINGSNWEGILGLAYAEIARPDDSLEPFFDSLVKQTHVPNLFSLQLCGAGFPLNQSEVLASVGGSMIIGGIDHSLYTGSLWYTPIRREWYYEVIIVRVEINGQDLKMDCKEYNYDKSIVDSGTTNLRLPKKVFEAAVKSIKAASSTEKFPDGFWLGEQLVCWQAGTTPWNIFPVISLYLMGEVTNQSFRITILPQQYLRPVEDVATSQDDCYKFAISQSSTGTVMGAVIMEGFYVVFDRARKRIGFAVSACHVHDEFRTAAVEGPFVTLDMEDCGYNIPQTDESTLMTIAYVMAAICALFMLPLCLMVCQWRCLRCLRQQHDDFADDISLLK

One may read the Ki as the equilibrium dissociation constant of an inhibitor or competing ligand from its target. `COC(=O)N(C)c1cc(C(=O)NC(C)c2ccccc2)cc(C(=O)NC(CC(C)C)C(O)CC(C)C(=O)NC(C(=O)NCC(C)C)C(C)C)c1` (stereo not drawn) [methyl 3-(5-hydroxy-8-(1-(isobutylamino)-3-methyl-1-oxobutan-2-ylamino)-2,7-dimethyl-8-oxooctan-4-ylcarbamoyl)-5-(1-phenylethylcarbamoyl)phenyl(methyl)carbamate]: the values for the Ki at memapsin 2, on Cathepsin D and at memapsin 1 were 0.405 to 2 µM, below 0.405 µM and below 0.405 µM, respectively.

What is called IC50 is the concentration that gives 50% inhibition. In the case of `CC(C)CC(NC(=O)c1cc(C(=O)NC(C)c2ccccc2)cc(N(C)S(C)(=O)=O)c1)C(O)CC(C)C(=O)NC(C)C` (stereo not drawn) [N1-(5-hydroxy-8-(isopropylamino)-2,7-dimethyl-8-oxooctan-4-yl)-5-(N-methylmethylsulfonamido)-N3-(1-phenylethyl)isophthalamide], the Ki at memapsin 2 and on memapsin 1 was 0.405 to 2 µM in each case. For the same compound, the 50% inhibitory concentration (IC50) in the assay with Aβ production is above 20 µM.

On to `CCN(Cc1nc(C)cs1)C(=O)c1cccc(C(=O)NC(CC(C)C)C(O)CC(C)C(=O)NC(C(=O)NCC(C)C)C(C)C)c1` (stereo not drawn) [N1-ethyl-N3-(5-hydroxy-8-(1-(isobutylamino)-3-methyl-1-oxobutan-2-ylamino)-2,7-dimethyl-8-oxooctan-4-yl)-N1-((4-methylthiazol-2-yl)methyl)isophthalamide], for which, at memapsin 2, the inhibition constant (Ki) was below 0.405 µM. Besides, the concentration for half-maximal inhibition (IC50) in the assay with Aβ production was below 5 µM.

Regarding `CC(C)CC(NC(=O)c1cc(C(=O)NC(CO)c2ccccc2)cc(N(C)S(C)(=O)=O)c1)C(O)CC(C)C(=O)NC(C(=O)NC(C)C)C(C)C` (stereo not drawn) [N1-(2-hydroxy-1-phenylethyl)-N3-(5-hydroxy-8-(1-(isopropylamino)-3-methyl-1-oxobutan-2-ylamino)-2,7-dimethyl-8-oxooctan-4-yl)-5-(N-methylmethylsulfonamido)isophthalamide], the Ki at memapsin 2 was 0.405 to 2 µM. This compound also displayed an IC50 in the assay on Aβ production above 20 µM.

Consider `Cc1cc(C(=O)NC(CC(C)C)C(O)CC(C)C(=O)NC(C(=O)NCC(C)C)C(C)C)cc(C(=O)N(C)Cc2cccnc2)c1` (stereo not drawn) [N1-(5-hydroxy-8-(1-(isobutylamino)-3-methyl-1-oxobutan-2-ylamino)-2,7-dimethyl-8-oxooctan-4-yl)-N3,5-dimethyl-N3-(pyridin-3-ylmethyl)isophthalamide], for which the Ki on memapsin 2 is below 0.405 µM. Also, the IC50 with Aβ production was 10 to 20 µM.

For the compound `CC(C)CNC(=O)C(NC(=O)C(C)CC(O)C(CC(C)C)NC(=O)c1cccc(C(=O)N(C)Cc2cccc(O)c2)c1)C(C)C` (stereo not drawn) [N1-(5-hydroxy-8-(1-(isobutylamino)-3-methyl-1-oxobutan-2-ylamino)-2,7-dimethyl-8-oxooctan-4-yl)-N3-(3-hydroxybenzyl)-N3-methylisophthalamide], the Ki at memapsin 2 lay within 0.405 to 2 µM. For the same compound, the IC50 in the assay with Aβ production is above 20 µM.

For `Cc1nc(C(C)NC(=O)c2cc(C(=O)NC(CC(C)C)C(O)CC(C)C(=O)NC(C(=O)NC(C)C)C(C)C)cc(N(C)S(C)(=O)=O)c2)c(C)o1` (stereo not drawn) [N1-(1-(2,5-dimethyloxazol-4-yl)ethyl)-N3-(5-hydroxy-8-(1-(isopropylamino)-3-methyl-1-oxobutan-2-ylamino)-2,7-dimethyl-8-oxooctan-4-yl)-5-(N-methylmethylsulfonamido)isophthalamide], the figures for the Ki on memapsin 2 and on Cathepsin D were below 0.405 µM and 0.405 to 2 µM, respectively. This compound also displayed a half-maximal inhibitory concentration (IC50) in the assay on Aβ production of 10 to 20 µM.

On to `CC(C)CNC(=O)C(NC(=O)C(C)CC(O)C(CC(C)C)NC(=O)c1cncc(C(=O)N(C)Cc2cccnc2)c1)C(C)C` (stereo not drawn) [N3-(5-hydroxy-8-(1-(isobutylamino)-3-methyl-1-oxobutan-2-ylamino)-2,7-dimethyl-8-oxooctan-4-yl)-N5-methyl-N5-(pyridin-3-ylmethyl)pyridine-3,5-dicarboxamide], for which, on memapsin 2, the Ki was in the range of 0.405 to 2 µM. In the assay on Aβ production, this compound showed an IC50 above 20 µM.

Consider `Cc1csc(CNC(=O)c2cccc(C(=O)N[C@@H](CC(C)C)[C@@H](O)C[C@@H](C)C(=O)N[C@H](C(=O)NCC(C)C)C(C)C)n2)n1` [N2-(5-hydroxy-8-(1-(isobutylamino)-3-methyl-1-oxobutan-2-ylamino)-2,7-dimethyl-8-oxooctan-4-yl)-N6-((4-methylthiazol-2-yl)methyl)pyridine-2,6-dicarboxamide], for which the Ki on memapsin 2 is 2 to 5 µM; on Cathepsin D, above 5 µM. Besides, the IC50 with Aβ production is above 20 µM.

`CC(C)CNC(=O)C(NC(=O)C(C)CC(O)C(CC(C)C)NC(=O)c1cc(C(=O)NC2CCCC2)cc(N(C)S(C)(=O)=O)c1)C(C)C` (stereo not drawn) [N1-cyclopentyl-N3-(5-hydroxy-8-(1-(isobutylamino)-3-methyl-1-oxobutan-2-ylamino)-2,7-dimethyl-8-oxooctan-4-yl)-5-(N-methylmethylsulfonamido)isophthalamide]: at memapsin 2, the Ki is below 0.405 µM. Further, the half-inhibitory concentration (IC50) in the assay with Aβ production is below 5 µM.

On to `CC(C)CC(NC(=O)c1cc(C(=O)NC(C)c2ccccc2)cc(N(C)S(C)(=O)=O)c1)C(O)CC(C)C(=O)NC(C(=O)NCC1CCN(C)CC1)C(C)C` (stereo not drawn) [N1-(5-hydroxy-2,7-dimethyl-8-(3-methyl-1-((1-methylpiperidin-4-yl)methylamino)-1-oxobutan-2-ylamino)-8-oxooctan-4-yl)-5-(N-methylmethylsulfonamido)-N3-(1-phenylethyl)isophthalamide], for which, on memapsin 2, the Ki was below 0.405 µM. Also, in the assay on Aβ production, the IC50 is below 5 µM.

For `CC(=O)N(C)c1cc(C(=O)NC(C)c2ccccc2)cc(C(=O)NC(CC(C)C)C(O)CC(C)C(=O)NC(C(=O)NCC(C)C)C(C)C)c1` (stereo not drawn) [N1-(5-hydroxy-8-(1-(isobutylamino)-3-methyl-1-oxobutan-2-ylamino)-2,7-dimethyl-8-oxooctan-4-yl)-5-(N-methylacetamido)-N3-(1-phenylethyl)isophthalamide], the Ki on memapsin 2 is below 0.405 µM. The compound further showed a half-maximal inhibitory concentration (IC50) in the assay with Aβ production of 5 to 10 µM.

Consider `CCCNC(=O)c1cc(C(=O)NC(CC(C)C)C(O)CC(C)C(=O)NC(C(=O)NC(C)C)C(C)C)cc(N(C)S(C)(=O)=O)c1` (stereo not drawn) [N1-(5-hydroxy-8-(1-(isopropylamino)-3-methyl-1-oxobutan-2-ylamino)-2,7-dimethyl-8-oxooctan-4-yl)-5-(N-methylmethylsulfonamido)-N3-propylisophthalamide], for which the figures for the Ki on memapsin 2 and on Cathepsin D were below 0.405 µM and 0.405 to 2 µM, respectively. The half-inhibitory concentration (IC50) in the assay on Aβ production is below 5 µM.

For `CC(C)CC(NC(=O)c1cc(C(=O)NC(C)c2ccccc2)cc(N(C)S(C)(=O)=O)c1)C(O)CC(N=[N+]=[N-])C(=O)NC(C(=O)NC(C)C)C(C)C` (stereo not drawn) [N1-(7-azido-5-hydroxy-8-(1-(isopropylamino)-3-methyl-1-oxobutan-2-ylamino)-2-methyl-8-oxooctan-4-yl)-5-(N-methylmethylsulfonamido)-N3-(1-phenylethyl)isophthalamide], on memapsin 2, the Ki was below 0.405 µM. In addition, the 50% inhibitory concentration (IC50) in the assay on Aβ production was below 5 µM.

Regarding `Cc1nc(CNC(=O)c2cc(C(=O)NC(CC(C)C)C(O)CC(C)C(=O)NC(C(=O)NC(C)C)C(C)C)cc(N(C)S(C)(=O)=O)c2)c(C)o1` (stereo not drawn) [N1-((2,5-dimethyloxazol-4-yl)methyl)-N3-(5-hydroxy-8-(1-(isopropylamino)-3-methyl-1-oxobutan-2-ylamino)-2,7-dimethyl-8-oxooctan-4-yl)-5-(N-methylmethylsulfonamido)isophthalamide], the Ki on memapsin 2 and on Cathepsin D was below 0.405 µM each time. Further, in the assay on Aβ production, the IC50 was below 5 µM.

For the compound `CC(C)CC(NC(=O)c1cc(C(=O)NC(C)c2ccccc2)cc(N(C)S(C)(=O)=O)c1)C(O)CC(N)C(=O)NC(C(=O)NC(C)C)C(C)C` (stereo not drawn) [N1-(7-amino-5-hydroxy-8-(1-(isopropylamino)-3-methyl-1-oxobutan-2-ylamino)-2-methyl-8-oxooctan-4-yl)-5-(N-methylmethylsulfonamido)-N3-(1-phenylethyl)isophthalamide], the inhibition constant (Ki) at memapsin 2 is below 0.405 µM. This compound had an IC50 in the assay with Aβ production above 20 µM.

In the case of `Cc1cc(C(=O)NC(CC(C)C)C(O)CC(C)C(=O)NC(C(=O)NCC(C)C)C(C)C)cc(C(=O)N(C)Cc2ccccn2)c1` (stereo not drawn) [N1-(5-hydroxy-8-(1-(isobutylamino)-3-methyl-1-oxobutan-2-ylamino)-2,7-dimethyl-8-oxooctan-4-yl)-N3,5-dimethyl-N3-(pyridin-2-ylmethyl)isophthalamide], the Ki at memapsin 2 was below 0.405 µM. Moreover, in the assay on Aβ production, the concentration for half-maximal inhibition (IC50) was above 20 µM.

In the case of `CNS(=O)(=O)c1cc(C(=O)NC(C)c2ccccc2)cc(C(=O)NC(CC(C)C)C(O)CC(C)C(=O)NC(C(=O)NCC(C)C)C(C)C)c1` (stereo not drawn) [N1-(5-hydroxy-8-(1-(isobutylamino)-3-methyl-1-oxobutan-2-ylamino)-2,7-dimethyl-8-oxooctan-4-yl)-5-(N-methylsulfamoyl)-N3-(1-phenylethyl)isophthalamide], the Ki at memapsin 2 was below 0.405 µM. In the assay on Aβ production, this compound came in with an IC50 of 5 to 10 µM.
